The CheMixHub viscosity set
Where “and” joins values, the source holds several entries; their conditions need not be identical. Equal values may be shown once.

Assay: xn = mol fraction of the nth substance listed

CC(Cl)(Cl)Cl + C1CCCCC1
303.15 K, 101 kPa
Conditions | viscosity [mPa·s]
x1 = 0.157 | 0.7897
x1 = 0.2218 | 0.776
x1 = 0.2876 | 0.7624
x1 = 0.3722 | 0.7462
x1 = 0.4768 | 0.7297
x1 = 0.543 | 0.7219
x1 = 0.679 | 0.713
x1 = 0.7525 | 0.7123
x1 = 0.8597 | 0.716
x1 = 0.9403 | 0.7201

CC/C(C)=N/O + C1CCCCC1
viscosity [mPa·s], 101.3 kPa
Conditions | x1 = 0.0972 | x1 = 0.1952 | x1 = 0.2926 | x1 = 0.3921 | x1 = 0.4913 | x1 = 0.5914 | x1 = 0.6926 | x1 = 0.7942 | x1 = 0.8967
293.15 K | 1.007 | 1.072 | 1.166 | 1.302 | 1.489 | 1.75 | 2.122 | 2.681 | 3.585
298.15 K | 0.923 | 0.982 | 1.065 | 1.182 | 1.339 | 1.567 | 1.884 | 2.347 | 3.035
303.15 K | 0.844 | 0.895 | 0.967 | 1.068 | 1.205 | 1.397 | 1.667 | 2.053 | 2.622

CCCCCBr + C1CCCCC1
308.15 K, 101 kPa
Conditions | viscosity [mPa·s]
x2 = 0.0975 | 0.6428
x2 = 0.1991 | 0.6363
x2 = 0.2997 | 0.6323
x2 = 0.398 | 0.6305
x2 = 0.5025 | 0.6321
x2 = 0.5837 | 0.6355
x2 = 0.695 | 0.645
x2 = 0.8018 | 0.6614
x2 = 0.9007 | 0.6894

CC(Cl)(Cl)Cl + C1CCOC1
303.15 K, 101 kPa
Conditions | viscosity [mPa·s]
x2 = 0.0731 | 0.7289
x2 = 0.1213 | 0.7262
x2 = 0.2262 | 0.7112
x2 = 0.3894 | 0.6687
x2 = 0.4716 | 0.6424
x2 = 0.5677 | 0.6104
x2 = 0.6475 | 0.5834
x2 = 0.7415 | 0.5513
x2 = 0.8139 | 0.5271
x2 = 0.866 | 0.51

COC(=O)c1ccccc1C(=O)OC + C1CCOC1
viscosity [mPa·s], 101 kPa
Conditions | x1 = 0.1001 | x1 = 0.2019 | x1 = 0.2966 | x1 = 0.3989 | x1 = 0.5009 | x1 = 0.5992 | x1 = 0.7006 | x1 = 0.8013 | x1 = 0.9004
293.15 K | 0.7426 | 1.073 | 1.505 | 2.155 | 3.107 | 4.313 | 6.121 | 8.638 | 12.37
298.15 K | 0.7028 | 0.9986 | 1.383 | 1.947 | 2.756 | 3.756 | 5.214 | 7.181 | 9.998
303.15 K | 0.666 | 0.9314 | 1.276 | 1.769 | 2.463 | 3.303 | 4.496 | 6.063 | 8.238
308.15 K | 0.6197 | 0.8698 | 1.181 | 1.616 | 2.217 | 2.93 | 3.92 | 5.189 | 6.906
313.15 K | 0.6531 | 0.8136 | 1.097 | 1.483 | 2.007 | 2.619 | 3.45 | 4.494 | 5.87
318.15 K | 0.557 | 0.7619 | 1.021 | 1.365 | 1.828 | 2.357 | 3.063 | 3.933 | 5.056
323.15 K | 0.4957 | 0.7137 | 0.9522 | 1.261 | 1.674 | 2.136 | 2.739 | 3.474 | 4.404

O=CO + C1CCOC1
298.15 K, 101 kPa
Conditions | viscosity [mPa·s]
x2 = 0.0662 | 1.443
x2 = 0.1376 | 1.396
x2 = 0.2148 | 1.328
x2 = 0.2985 | 1.233
x2 = 0.3896 | 1.114
x2 = 0.4891 | 0.9824
x2 = 0.5983 | 0.8395
x2 = 0.7186 | 0.6886
x2 = 0.8517 | 0.5576

CC(Cl)(Cl)Cl + C1COCCO1
101.33 kPa
Conditions | viscosity
298.15 K, x1 = 0.102 | 1.141 mPa·s
298.15 K, x1 = 0.201 | 1.097 mPa·s
298.15 K, x1 = 0.3 | 1.057 mPa·s
298.15 K, x1 = 0.4 | 1.016 mPa·s
298.15 K, x1 = 0.5 | 0.9762 mPa·s and 0.9767 mPa·s
298.15 K, x1 = 0.599 | 0.938 mPa·s
298.15 K, x1 = 0.7 | 0.9003 mPa·s
298.15 K, x1 = 0.8 | 0.8635 mPa·s
298.15 K, x1 = 0.862 | 0.8404 mPa·s
303.15 K, x2 = 0.0725 | 0.7541 mPa·s
303.15 K, x2 = 0.1135 | 0.771 mPa·s
303.15 K, x2 = 0.2041 | 0.8089 mPa·s
303.15 K, x2 = 0.336 | 0.8625 mPa·s
303.15 K, x2 = 0.4193 | 0.8943 mPa·s
303.15 K, x2 = 0.5168 | 0.9291 mPa·s
303.15 K, x2 = 0.6428 | 0.97 mPa·s
303.15 K, x2 = 0.7459 | 1.002 mPa·s
303.15 K, x2 = 0.8153 | 1.023 mPa·s
303.15 K, x2 = 0.9277 | 1.059 mPa·s

O=CO + C1COCO1
298.15 K, 101 kPa
Conditions | viscosity [mPa·s]
x2 = 0.0646 | 1.419
x2 = 0.1345 | 1.36
x2 = 0.2103 | 1.292
x2 = 0.2929 | 1.216
x2 = 0.3832 | 1.131
x2 = 0.4824 | 1.035
x2 = 0.5918 | 0.9302
x2 = 0.7131 | 0.8195
x2 = 0.8483 | 0.7018

CC(C)C1CCCCC1 + C1C[C@@H]2[C@H]3CC[C@H](C3)[C@@H]2C1
viscosity [mPa·s], 100 kPa
Conditions | x2 = 0.1002 | x2 = 0.1999 | x2 = 0.3001 | x2 = 0.4 | x2 = 0.5 | x2 = 0.5999 | x2 = 0.7001 | x2 = 0.8003 | x2 = 0.8999
293.15 K | 1.194 | 1.305 | 1.431 | 1.578 | 1.741 | 1.938 | 2.165 | 2.421 | 2.706
298.15 K | 1.106 | 1.206 | 1.32 | 1.451 | 1.597 | 1.775 | 1.976 | 2.205 | 2.456
303.15 K | 1.029 | 1.119 | 1.222 | 1.34 | 1.471 | 1.631 | 1.812 | 2.016 | 2.241
308.15 K | 0.96 | 1.042 | 1.135 | 1.242 | 1.361 | 1.506 | 1.67 | 1.853 | 2.055
313.15 K | 0.898 | 0.973 | 1.058 | 1.156 | 1.265 | 1.397 | 1.543 | 1.709 | 1.891
318.15 K | 0.842 | 0.911 | 0.989 | 1.078 | 1.178 | 1.298 | 1.431 | 1.581 | 1.746
323.15 K | 0.793 | 0.855 | 0.927 | 1.009 | 1.1 | 1.21 | 1.331 | 1.467 | 1.616

CC(Cl)(Cl)Cl + CC1CCCCC1
303.15 K, 101 kPa
Conditions | viscosity [mPa·s]
x1 = 0.1468 | 0.6328
x1 = 0.2138 | 0.629
x1 = 0.31 | 0.6248
x1 = 0.4182 | 0.6239
x1 = 0.5255 | 0.6301
x1 = 0.5982 | 0.6379
x1 = 0.69 | 0.6518
x1 = 0.759 | 0.6659
x1 = 0.8273 | 0.6809
x1 = 0.9075 | 0.7009

CC(Cl)(Cl)Cl + CC1CCCO1
298.15 K, 101.33 kPa
Conditions | viscosity [mPa·s]
x1 = 0.099 | 0.5033
x1 = 0.2 | 0.5324
x1 = 0.299 | 0.5617
x1 = 0.398 | 0.5917
x1 = 0.5 | 0.6234
x1 = 0.6 | 0.655
x1 = 0.7 | 0.6873
x1 = 0.8 | 0.7209
x1 = 0.869 | 0.7447

Cc1ccc(O)cc1C + CC12CCC(CC1=O)C2(C)C
101.33 kPa, x1 = 0.7
Conditions | viscosity [mPa·s]
293.15 K | 25.37
298.15 K | 18.86
303.15 K | 14.61
308.15 K | 11.42
313.15 K | 9.026
318.15 K | 7.494
323.15 K | 6.189

CC(Cl)(Cl)Cl + CC#N
303.15 K, 101.32 kPa
Conditions | viscosity [mPa·s]
x2 = 0.1263 | 0.6581
x2 = 0.2051 | 0.6229
x2 = 0.2652 | 0.5971
x2 = 0.3855 | 0.5476
x2 = 0.478 | 0.5114
x2 = 0.6358 | 0.4505
x2 = 0.6802 | 0.4339
x2 = 0.7999 | 0.3906
x2 = 0.8673 | 0.3675
x2 = 0.9074 | 0.3539

O=CO + CC#N
303.15 K, 101 kPa
Conditions | viscosity [mPa·s]
x1 = 0.0912 | 0.386
x1 = 0.1824 | 0.422
x1 = 0.2772 | 0.468
x1 = 0.3728 | 0.523
x1 = 0.4721 | 0.597
x1 = 0.5735 | 0.691
x1 = 0.6751 | 0.801
x1 = 0.7806 | 0.962
x1 = 0.8891 | 1.17

CC(Cl)(Cl)Cl + CC(=O)CC(C)C
298.15 K, 101.33 kPa
Conditions | viscosity [mPa·s]
x2 = 0.0803 | 0.739
x2 = 0.1769 | 0.694
x2 = 0.2653 | 0.665
x2 = 0.3765 | 0.634
x2 = 0.4692 | 0.614
x2 = 0.5907 | 0.594
x2 = 0.7245 | 0.573
x2 = 0.8536 | 0.558

CCCC[N+](CCCC)(CCCC)CCCC.[OH-] + CC(=O)N(C)C
viscosity [mPa·s], 101 kPa
Conditions | 298.15 K | 303.15 K | 308.15 K | 313.15 K
x1 = 0.0124 | 1.15 | 1.05 | 0.97 | 0.9
x1 = 0.0388 | 1.63 | 1.47 | 1.38 | 1.23
x1 = 0.0678 | 2.15 | 1.97 | 1.81 | 1.64
x1 = 0.0996 | 2.67 | 2.47 | 2.25 | 2.06
x1 = 0.1348 | 3.16 | 2.96 | 2.7 | 2.49
x1 = 0.1538 | 3.44 | 3.22 | 2.96 | 2.71
x1 = 0.1951 | 3.94 | 3.74 | 3.48 | 3.21
x1 = 0.2666 | 4.74 | 4.48 | 4.21 | 3.94
x1 = 0.3529 | 5.43 | 5.15 | 4.9 | 4.62
x1 = 0.4589 | 6.02 | 5.73 | 5.48 | 5.21
x1 = 0.5925 | 6.45 | 6.2 | 5.97 | 5.73
x1 = 0.7026 | 6.63 | 6.37 | 6.14 | 5.93
x1 = 0.8358 | 6.66 | 6.42 | 6.19 | 5.99

O=CO + CC(=O)O
viscosity [mPa·s], 101 kPa
Conditions | 298.15 K | 323.15 K
x1 = 0.0603 | 1.119 | 0.7729
x1 = 0.1 | 1.286 | –
x1 = 0.2 | 1.391 | –
x1 = 0.2363 | 1.278 | 0.8526
x1 = 0.3 | 1.463 | –
x1 = 0.4 | 1.506 | –
x1 = 0.4165 | 1.425 | 0.9226
x1 = 0.5 | 1.564 | –
x1 = 0.6 | 1.587 | –
x1 = 0.613 | 1.52 | 0.9694
x1 = 0.7 | 1.607 | –
x1 = 0.7416 | 1.565 | 0.9847
x1 = 0.8 | 1.607 | –
x1 = 0.8864 | 1.565 | 0.9893
x1 = 0.9 | 1.582 | –
x1 = 0.9578 | 1.56 | 0.9775
